Assay: Concentration of (S)-methoprene on dog hair following oral administration (HPLC)
Format: in vivo, dogs
Details: oral 50 mg/kg one time on Day 0; for concentration at 17 day / concentration at 21 day / concentration at 1 day / concentration at 3 day / concentration at 5 day / concentration at 7 day / concentration at 10 day / concentration at 14 day / concentration at 28 day: dog, hair, po, 50 mg/kg; for concentration at 1 day: day 1
Description: Twelve random-bred adult dogs of various sex and medium hair coat were selected based on hair coat, health, and individual habits. The twelve dogs were grouped into two groups of six dogs each. Dog weights ranged from 22.5 kg to 35.0 kg, and the various weights and each sex were represented in each group. The dogs received a measured amount of Science Diet maintenance dog food daily and water was available. The two groups of dogs were housed separately. The dogs of Group 1 were not given any treatments, whereas those of Group 2 were each given 50 mg/kg of technical (S)-methoprene one time only at the start of the study (Day 0).
Blood samples were taken periodically by drawing the samples into 10 cc disposable syringes and transferring them to labeled 5 mL heparinized EDTA vacutainers treated with […] of paraoxon solution at a concentration of 1 x 10^-2 M. The blood samples were frozen until ready for analysis. Hair samples were clipped from the dogs on the same days that blood samples were taken, then placed in labeled freezer jars with aluminum foil seals, and frozen.
To analyze the dog hair, a known weight (4-8 g) of each dog hair sample was extracted in hexane, the extract evaporated and the residue reconstituted in 2 mL of hexane. One mL of the extract was cleaned by solid-phase extraction using a 3 cc/500 mg silica cartridge. The (S)-methoprene was then eluted from the cartridge with 5% ethyl acetate/hexane. The residue was reconstituted in 1 mL acetonitrile and analyzed by reversed-phase high-pressure liquid chromatography (HPLC) on a C18 column (250 x 4.6 mm, 10-micron diameter) using diode array detection at a wavelength of 264 nm, with a mobile phase of 90:10 methanol:water at 1.5 mUmin and an injection volume of […]. The (S)-methoprene peak eluted at about 5.1 minutes. The concentration of (S)-methoprene was calculated based on a calibration curve generated by concurrently running a series of standards. The limit of quantitation was about 20 ppb.

SMILES: COC(C)(C)CCC[C@H](C)C/C=C/C(C)=C/C(=O)OC(C)C [(S)-Methoprene, 1-isopropyl (E,E)-11-methoxy-3,7,11-trimethyl dodecadi-2,4-enoate]
- Concentration of (S)-Methoprene on Dog Hair (Dog #60, day 3): 33,900 ppb
- Concentration of (S)-Methoprene on Dog Hair (Dog #60, day 5): 12,500 ppb
- Concentration of (S)-Methoprene on Dog Hair (Dog #60, day 7): 2,400 ppb
- Concentration of (S)-Methoprene on Dog Hair (Dog #60, day 10): 12,300 ppb
- Concentration of (S)-Methoprene on Dog Hair (Dog #60, day 14): 5,300 ppb
- Concentration of (S)-Methoprene on Dog Hair (Dog #60, day 17): 3,600 ppb
- Concentration of (S)-Methoprene on Dog Hair (Dog #60, day 21): 12,100 ppb
- Concentration of (S)-Methoprene on Dog Hair (Dog #60, day 28): 5,200 ppb
- concentration at 17 day (Dog #98, day 17): 345 ng/g
- concentration at 17 day (Dog #528, day 17): 137 ng/g
- concentration at 21 day (Dog #528, day 21): 31.2 ng/g
- concentration at 17 day (Dog #529, day 17): 39.7 ng/g
- concentration at 21 day (Dog #529, day 21): 93.5 ng/g
- concentration at 17 day (Dog #532, day 17): 331 ng/g
- concentration at 17 day (Dog #535, day 17): 1090 ng/g
- concentration at 1 day (random-bred, Dog #60): 6000 ng/g
- concentration at 1 day (random-bred, Dog #98): 47.4 ng/g
- concentration at 3 day (random-bred, Dog #98, day 3): 125 ng/g
- concentration at 5 day (random-bred, Dog #98, day 5): 161 ng/g
- concentration at 7 day (random-bred, Dog #98, day 7): 126 ng/g
- concentration at 10 day (random-bred, Dog #98, day 10): 167 ng/g
- concentration at 14 day (random-bred, Dog #98, day 14): 200 ng/g
- concentration at 21 day (random-bred, Dog #98, day 21): 231 ng/g
- concentration at 28 day (random-bred, Dog #98, day 28): 287 ng/g
- concentration at 1 day (random-bred, Dog #528): 76.6 ng/g
- concentration at 3 day (random-bred, Dog #528, day 3): 199 ng/g
- concentration at 5 day (random-bred, Dog #528, day 5): 114 ng/g
- concentration at 7 day (random-bred, Dog #528, day 7): 150 ng/g
- concentration at 10 day (random-bred, Dog #528, day 10): 126 ng/g
- concentration at 14 day (random-bred, Dog #528, day 14): 103 ng/g
- concentration at 28 day (random-bred, Dog #528, day 28): 47.2 ng/g
- concentration at 1 day (random-bred, Dog #529): 86.6 ng/g
- concentration at 3 day (random-bred, Dog #529, day 3): 82.2 ng/g
- concentration at 5 day (random-bred, Dog #529, day 5): 58.3 ng/g
- concentration at 7 day (random-bred, Dog #529, day 7): 34.5 ng/g
- concentration at 10 day (random-bred, Dog #529, day 10): 60.5 ng/g
- concentration at 14 day (random-bred, Dog #529, day 14): 85.5 ng/g
- concentration at 28 day (random-bred, Dog #529, day 28): 106 ng/g
- concentration at 3 day (random-bred, Dog #532, day 3): 62.4 ng/g
- concentration at 5 day (random-bred, Dog #532, day 5): 98.6 ng/g
- concentration at 7 day (random-bred, Dog #532, day 7): 117 ng/g
- concentration at 10 day (random-bred, Dog #532, day 10): 255 ng/g
- concentration at 14 day (random-bred, Dog #532, day 14): 350 ng/g
- concentration at 21 day (random-bred, Dog #532, day 21): 342 ng/g
- concentration at 28 day (random-bred, Dog #532, day 28): 230 ng/g
- concentration at 1 day (random-bred, Dog #535): 49.3 ng/g
- concentration at 3 day (random-bred, Dog #535, day 3): 424 ng/g
- concentration at 5 day (random-bred, Dog #535, day 5): 276 ng/g
- concentration at 7 day (random-bred, Dog #535, day 7): 294 ng/g
- concentration at 10 day (random-bred, Dog #535, day 10): 681 ng/g
- concentration at 14 day (random-bred, Dog #535, day 14): 800 ng/g
- concentration at 21 day (random-bred, Dog #535, day 21): 675 ng/g
- concentration at 28 day (random-bred, Dog #535, day 28): 461 ng/g
